From ChEMBL document CHEMBL3853292, “Aspewentins D-H, 20-Nor-isopimarane Derivatives from the Deep Sea Sediment-Derived Fungus Aspergillus wentii SD-310” (J Nat Prod, 2016)
≈ marks a conversion by molar mass, not a printed value.

Assays:
Pseudomonas aeruginosa = assay: Antimicrobial activity against Pseudomonas aeruginosa QDIO-4 measured after 24 hrs by XTT assay; type: functional; settings: QDIO-4, 24 h
[1] = Toxicity in brine shrimp larvae assessed as lethality measured after 24 hrs by macroscopic analysis; settings: artemia salina; read-out: LD50
Alternaria brassicae = assay: Antimicrobial activity against Alternaria brassicae QDAU-1 measured after 24 hrs by XTT assay; type: functional; settings: QDAU-1, 24 h
Vibrio harveyi = assay: Antimicrobial activity against Vibrio harveyi QDIO-7 measured after 24 hrs by XTT assay; type: functional; settings: QDIO-7, 24 h
Escherichia coli = assay: Antimicrobial activity against Escherichia coli EMBLC-1 measured after 24 hrs by XTT assay; type: functional; settings: EMBLC-1, 24 h
Vibrio anguillarum = assay: Antimicrobial activity against Vibrio anguillarum QDIO-6 measured after 24 hrs by XTT assay; type: functional; settings: QDIO-6, 24 h
Vibrio parahaemolyticus = assay: Antimicrobial activity against Vibrio parahaemolyticus QDIO-8 measured after 24 hrs by XTT assay; type: functional; settings: QDIO-8, 24 h
Aeromonas hydrophila = assay: Antimicrobial activity against Aeromonas hydrophila QDIO-1 measured after 24 hrs by XTT assay; type: functional; settings: QDIO-1, 24 h
[2] = tested on: Colletotrichum gloeosporioides; assay: Antimicrobial activity against Colletotrichum gloeosporioides QDAU-2 by XTT assay; type: functional
Staphylococcus aureus = assay: Antimicrobial activity against Staphylococcus aureus EMBLC-2 measured after 24 hrs by XTT assay; type: functional; settings: EMBLC-2, 24 h
Micrococcus luteus = assay: Antimicrobial activity against Micrococcus luteus QDIO-3 measured after 24 hrs by XTT assay; type: functional; settings: QDIO-3, 24 h
Edwardsiella tarda = assay: Antimicrobial activity against Edwardsiella tarda QDIO-2 measured after 24 hrs by XTT assay; type: functional; settings: QDIO-2, 24 h
Fusarium graminearum = assay: Antimicrobial activity against Fusarium graminearum QDAU-4 measured after 24 hrs by XTT assay; type: functional; settings: QDAU-4, 24 h
Gaeumannomyces graminis = assay: Antimicrobial activity against Gaeumannomyces graminis QDAU-3 measured after 24 hrs; type: functional; settings: QDAU-3, 24 h

Row | Structure (SMILES) | MIC (Pseudomonas aeruginosa) [µg/mL] | LC50 at 24 h [1] [µg/mL] | MIC (Alternaria brassicae) [µg/mL] | MIC (Vibrio harveyi) [µg/mL] | MIC (Escherichia coli) [µg/mL] | MIC (Vibrio anguillarum) [µg/mL] | MIC (Vibrio parahaemolyticus) [µg/mL] | MIC (Aeromonas hydrophila) [µg/mL] | MIC [2] [µg/mL] | MIC (Staphylococcus aureus) [µg/mL] | MIC (Micrococcus luteus) [µg/mL] | MIC (Edwardsiella tarda) [µg/mL] | MIC (Fusarium graminearum) [µg/mL] | MIC (Gaeumannomyces graminis) [µg/mL]
1 | C=C[C@@]1(C)CCc2c3c(cc(O)c2[C@@H]1O)C(C)(C)[C@H](O)CC3 | 4 (≈ 13.2 µM) | > 10 | 32 (≈ 106 µM) | > 32 | 32 (≈ 106 µM) | 32 (≈ 106 µM) | 32 (≈ 106 µM) | > 32 | 32 (≈ 106 µM) | > 32 | 16 (≈ 52.9 µM) | > 32 | 4 (≈ 13.2 µM) | 32 (≈ 106 µM)
2 | C=C[C@]1(C)C=C2C(=O)C=C3C(C)(C)CC[C@@H](O)[C@]3(O)[C@H]2CC1 | > 32 | > 10 | 32 (≈ 106 µM) | > 32 | > 32 | > 32 | 32 (≈ 106 µM) | > 32 | > 32 | > 32 | 16 (≈ 52.9 µM) | > 32 | > 32 | > 32
3 | C=C[C@@]1(C)CCc2c(c(O)cc3c2CCCC3(C)C)C1 | > 32 | > 10 | > 32 | > 32 | > 32 | > 32 | 4 (≈ 14.8 µM) | > 32 | > 32 | 8 (≈ 29.6 µM) | > 32 | 16 (≈ 59.2 µM) | > 32 | 8 (≈ 29.6 µM)
4 | C=C[C@]1(C)C=C2C(=O)C=C3C(C)(C)CCC[C@]3(O)[C@@]2(O)CC1 | 32 (≈ 106 µM) | > 10 | 8 (≈ 26.5 µM) | > 32 | 32 (≈ 106 µM) | > 32 | > 32 | > 32 | > 32 | > 32 | 4 (≈ 13.2 µM) | > 32 | 2 (≈ 6.61 µM) | 32 (≈ 106 µM)
5 | C=C[C@]1(C)C=C2C(=O)C=C3C(C)(C)[C@H](O)CC[C@]3(O)[C@H]2CC1 | > 32 | > 10 | > 32 | 8 (≈ 26.5 µM) | > 32 | 32 (≈ 106 µM) | 32 (≈ 106 µM) | 16 (≈ 52.9 µM) | > 32 | 32 (≈ 106 µM) | > 32 | 4 (≈ 13.2 µM) | > 32 | > 32
6 | C=C[C@@]1(C)CCc2c3c(cc(O)c2[C@H]1O)C(C)(C)[C@H](O)CC3 | > 32 | > 10 | > 32 | 4 (≈ 13.2 µM) | 16 (≈ 52.9 µM) | > 32 | > 32 | > 32 | 32 (≈ 106 µM) | 32 (≈ 106 µM) | > 32 | > 32 | > 32 | 32 (≈ 106 µM)
7 | C[C@@H]1[C@H](O)[C@@H](C)/C=C/C=C/C=C/C=C/C=C/C=C/C=C/[C@H](O[C@@H]2O[C@H](C)[C@@H](O)[C@H](N)[C@@H]2O)C[C@@H]2O[C@](O)(C[C@@H](O)C[C@@H](O)[C@H](O)CC[C@@H](O)C[C@@H](O)CC(=O)O[C@H]1C)C[C@H](O)[C@H]2C(=O)O [AMPHOTERICIN B] |  |  | 32 (≈ 34.6 µM) |  |  |  |  |  | 32 (≈ 34.6 µM) |  |  |  | 8 (≈ 8.66 µM) | 64 (≈ 69.3 µM)
8 | O=C(N[C@H](CO)[C@H](O)c1ccc([N+](=O)[O-])cc1)C(Cl)Cl [CHLORAMPHENICOL] | 4 (≈ 12.4 µM) |  |  | 4 (≈ 12.4 µM) | 4 (≈ 12.4 µM) | 0.5 (≈ 1.55 µM) | 1 (≈ 3.09 µM) | 4 (≈ 12.4 µM) |  | 0.5 (≈ 1.55 µM) | 8 (≈ 24.8 µM) | 8 (≈ 24.8 µM) |  | 
